# Assay results taken from patent US20070202578A1, “Production of globosides oligosaccharides using metabolically engineered microorganisms” (priority 2005, published 2007).
# Biological target: T1, LgtD protein (Haemophilus influenzae, UniProt Q57287)
# T1 construct: made in house; host or cells: strain overexpressing lgtD; E. coli K12 derivative is inferred from the lgtD strains described, e.g. TA21 with pACT3-lgtD; used as crude extract
# Assay: enzymatic assays with crude extracts from a strain overexpressing the lgtD gene (donor Km with globotriose or globotetraose as acceptor)
# Assay type: biochemical
# T1 sequence (Q57287 whole entry): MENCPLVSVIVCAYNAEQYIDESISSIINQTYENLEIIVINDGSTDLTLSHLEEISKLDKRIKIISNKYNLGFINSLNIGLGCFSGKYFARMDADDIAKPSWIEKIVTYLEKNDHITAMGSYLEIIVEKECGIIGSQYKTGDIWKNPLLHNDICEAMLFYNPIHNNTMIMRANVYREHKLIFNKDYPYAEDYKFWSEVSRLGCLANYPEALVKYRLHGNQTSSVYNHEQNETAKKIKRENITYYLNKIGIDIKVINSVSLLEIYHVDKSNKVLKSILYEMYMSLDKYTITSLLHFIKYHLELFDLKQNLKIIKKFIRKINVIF
structure (smiles),measurement,setting,value
CC(=O)N[C@H]1[C@@H](OP(=O)(O)OP(=O)(O)OC[C@H]2O[C@@H](n3ccc(=O)[nH]c3=O)[C@H](O)[C@@H]2O)O[C@H](CO)[C@H](O)[C@@H]1O [UDP-GalNAc],"Km for UDP-GalNAc, fold lower than for UDP-Gal",globotriose as the acceptor,6 fold
same,fold increase in the Km for UDP-GalNAc,replacement of globotriose by globotetraose as the acceptor,20 fold
